Results as given in paper PMC6385358, “Discovery of ((1,2,4-oxadiazol-5-yl)pyrrolidin-3-yl)ureidyl derivatives as selective non-steroidal agonists of the G-protein coupled bile acid receptor-1” (Scientific Reports, 2019).
Several values for one entry are separate records, joined by “and”; a condition that tells them apart may be missing. Equal values may be shown once.

Key:
[1] = tested on: pro-glucagon mRNA in GLUTag cells; experiment: RT-PCR of pro-glucagon mRNA expression in GLUTag cells; type: cell-based, mouse; details: 10 μM
Method: (§1) The activity of compounds 1–14 on GPBAR1 was evaluated in a luciferase reporter assay using HEK-293T cells transfected with GPBAR1. The efficacy of tested compounds (Table 1) was measured using taurolithocholic acid (TLCA) as GPBAR1 reference compound[10],[11]. Each compound was tested at the concentration of 10 μM and transactivation activity of TLCA on a cAMP responsive element (CRE) (i.e. TGR5/GPBAR1) was considered equal to 100%. […] Thus, 9 and 10 (Table 1) turned out to be the most promising derivatives considering their low EC50 values and high activity efficacy. To further characterize the pharmacological properties of these compounds, we expanded their in vitro profile to common off-targets for bile acid receptor ligands.
Figure 3 (A) Dose response curves of compounds 9 and 10 (concentrations ranging from 1 to 50 µM) in luciferase reporter assay. (B) Real-time PCR analysis of mRNA expression of Pro-glucagon in GLUTag cells treated with compounds 9 and 10 at 10 μM, and TLCA used as a positive control (10 μM). Values are normalized to GAPDH and are expressed relative to those of not treated cells (NT) which are arbitrarily settled to 1. The relative mRNA expression is expressed as 2^(−ΔΔCt). (C) Specificity of compounds 9 and 10 at 10 μM dose in luciferase reporter assays versus PPARα and PPARγ using Gemfibrozil (GEM, 10 μM) and Rosiglitazone (ROSI, 100 nM) as positive controls respectively. (D) Specificity of compounds 9 and 10 at 10 μM in luciferase reporter assays versus LXRα and LXRβ using GW3965 (GW, 10 μM) as positive control. (E) Specificity of compounds 9 and 10 at 10 μM in luciferase reporter assays versus FXR using CDCA (10 μM) as positive control; (F) Specificity of compounds 9 and 10 at 10 μM in luciferase reporter assays versus PXR using Rifaximin (Rifax, 10 μM) as positive control.
Evaluation of proglucagon mRNA expression was performed in RT-PCR on GLUTag cells (1 × 10^6 cells/well in a 6 well plate) as previously reported[34],[47]. The relative mRNA expression was calculated and expressed as 2^−(ΔΔCt). […]

[2] = Liver microsomal stability; type: in vitro ADME, mouse; details: liver microsomes; for CIint / half-life at 1 μM: 1 μM compound; for CIint: 0.3 mg protein/mL; for half-life at 1 μM: male, CD-1, mouse, pH 7.4, read-out: t½
Method: (§2) Chromatography was performed using a HPLC–MS system Q-ToF Premiere instrument (Waters, Co.) equipped with an ESI source and Waters pump systems. The mixture was separated on a Luna 5 µm C8(2) 100 °A 150 × 2 mm from Phenomenex. The mobile phase consisted of 0.2% formic acid (FA) in water as solvent A and 0.2% FA in acetonitrile as solvent B at a flow rate of 200 μL/min. The gradient was as follows: 0–2 min (75% A and 25% B), 2–20 min (5% A and 95% B), 20–30 min (75% A and 25% B). The detection of analytes was achieved by ESI in the positive mode with the appropriate MRM transition or by UV system at 220 nm.
Male mouse (CD-1) liver microsomes (Sigma-Aldrich) were used. All incubations were performed in duplicate in a shaking water bath at 37 °C. The incubation mixtures contained 1 μM compound with 1% DMSO used as a vehicle, mouse liver microsomes (0.3 mg of microsomal protein per mL), 5 mM MgCl2, 1 mM NADP, 5 mM glucose 6-phosphate, 0.4 U·mL^-^1 glucose 6-phosphate dehydrogenase, and 50 mM potassium phosphate buffer (pH 7.4) in a final volume of 0.5 mL. Aliquots were removed at 0, 5, 10, 20, 30, and 40 min after microsome addition and the reaction was stopped by adding 200 μL of ice-cold acetonitrile. After 2 h, the samples were centrifuged for 10 min at 10000 rpm, and the supernatants were transferred in matrix tubes for LC-MS/MS analysis. Propranolol, known as a high hepatic clearance drug in rodents, was used as a quality-control compound for the microsomal incubations. The slope of the linear regression of the curve obtained reporting the natural logarithm of compound area versus incubation time (−k) was used in the conversion to in vitro t1/2 values by t1/2 = […]. In vitro intrinsic clearance (Clint expressed as μL/min/mg) was calculated according to the following formula: Clint = volume of reaction (μL)/t1/2 (min)/protein of liver microsomes (mg).

[3] = LogD measurement (octanol/PBS pH 7.4); type: physicochemical; details: octanol/PBS (1/1)
Method: as §2
Ten μL of a 10 mM solution in DMSO of the compound was diluted in 490 μL of a 1/1 octanol/PBS mixture at pH 7.4. The mixture was gently shaken for 2 h at room temperature. Ten microliters of each phase was diluted in 490 μL of MeOH and analyzed by LC-MS/MS. Each compound was tested in triplicate. Log D was determined as the logarithm of the ratio of concentration of product in octanol and PBS, determined by mass signals.

LXRα = biological target: T1, LXRα (Homo sapiens, UniProt Q13133); experiment: Luciferase reporter specificity assay versus LXRα on HepG2 cells; type: cell-based; details: 10 μM
T1 construct: host or cells: HepG2
T1 sequence (Q13133 1-447): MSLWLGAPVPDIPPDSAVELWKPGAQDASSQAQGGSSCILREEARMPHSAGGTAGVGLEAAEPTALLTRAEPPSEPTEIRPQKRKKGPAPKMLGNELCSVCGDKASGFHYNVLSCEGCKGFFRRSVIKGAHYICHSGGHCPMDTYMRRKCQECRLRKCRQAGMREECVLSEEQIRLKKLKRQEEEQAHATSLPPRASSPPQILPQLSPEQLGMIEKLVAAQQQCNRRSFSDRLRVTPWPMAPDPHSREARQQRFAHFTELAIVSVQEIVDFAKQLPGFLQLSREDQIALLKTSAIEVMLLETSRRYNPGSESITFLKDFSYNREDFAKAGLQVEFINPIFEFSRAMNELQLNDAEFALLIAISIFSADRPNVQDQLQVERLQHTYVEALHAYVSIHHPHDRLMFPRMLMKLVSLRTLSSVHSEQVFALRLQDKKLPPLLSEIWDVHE
Method: as §1
Figure 3 (A) Dose response curves of compounds 9 and 10 (concentrations ranging from 1 to 50 µM) in luciferase reporter assay. (B) Real-time PCR analysis of mRNA expression of Pro-glucagon in GLUTag cells treated with compounds 9 and 10 at 10 μM, and TLCA used as a positive control (10 μM). Values are normalized to GAPDH and are expressed relative to those of not treated cells (NT) which are arbitrarily settled to 1. The relative mRNA expression is expressed as 2^(−ΔΔCt). […]
The specificity of compounds 9 and 10 versus PPARα, PPARγ, LXRα, LXRβ, FXR and PXR was determined in luciferase reporter gene assays as previously reported[29],[31].

[4] = Aqueous solubility measurement (PBS pH 7.4, LC-MS); type: physicochemical; details: aqueous buffer, kinetic from dmso stock; PBS pH 7.4, 24 h room temperature
Method: as §2
Ten μL of a 10 mM solution in DMSO of the compound was diluted either in 490 μL of PBS pH 7.4 or in the organic solvent MeOH (in triplicate). The tubes were gently shaken 24 h at room temperature, then centrifuged for 5 min at 4000 rpm. Ten μL of sample was diluted in 490 μL of MeOH. The solubility is determined by the ratio of mass signal area PBS/organic solvent.

CIint [2]	Compound remaining 40 min after treatment [2]	half-life at 1 μM [2]	logD at 2 h [3]	LXRα transactivation (LXRα)	solubility at 24 h [4]	Structure (SMILES)	Induction of pro-glucagon mRNA expression [1]	Efficacy in inducing pro-glucagon mRNA expression compared with TLCA ([1]; TLCA 10 μM)
76 μL/min/mg protein	40%	30 min	1.25	unable to induce	70 µg/mL and 198 µM	O=C(NC1CCCCC1)N[C@@H]1CN[C@H](c2nc(-c3ccccc3)no2)C1 [Compound 10]	effective in inducing the expression of pro-glucagon mRNA	same efficacy of TLCA
67 μL/min/mg protein	42%	35 min	1.47	unable to induce	42 µg/mL and 110 µM	O=C(Nc1ccc(Cl)cc1)N[C@@H]1CN[C@H](c2nc(-c3ccccc3)no2)C1 [Compound 9]	effective in inducing the expression of pro-glucagon mRNA	
